Laboratory results published in patent US20230085686A1, “Multicompartement hydrogel fibre their preparation and uses thereof” (Association For The Advancement Of Tissue Engineering And …, priority 2020, published 2023).

System: Melanoma cells of the Sk-MEL-28 cell line
Assay: Drug test with doxorubicin in modular cancer/BM/stroma ribbon fibres, Calcein AM / Propidium Iodide viability
Format: cell-based, human
Conditions: 1 μM Doxorubicin, 24 h treatment
Description: Melanoma cells of the Sk-MEL-28 (ATCC) cell line were encapsulated in the GG/GelMA compartment and human dermal fibroblasts (hDFs) were encapsulated in the GG compartment, both representing the cancer and stroma, respectively, separated by the basement-membrane-mimicking GelTrex/HA. […] In order to track the different cell types, these were stained with CellBrite Green and Orange (Biotium) according to the manufacturer's instructions. […] With this model, melanoma cells were included in the cancer compartment, and dermal fibroblasts within the stromal compartment, both separated by a GelTrex BM in a unique melanoma-on-a-fibre structure. Fibres with tracked cells were observed under an Inverted Confocal Laser Scanning Microscope (Leica), throughout one week of culture.
For the drug tests, fibroblasts were stained blue prior to encapsulation using CellTracker blue CMAC Dye (7-amino 4-chloromethylcoumarin, Molecular Probes) according to manufacturer's instructions. These were then integrated in the fibres together with the cancer cells, and all modular fibres were produced. 24 h after fabrication, fibres were incubated with either culture medium (no treatment) or culture medium containing 1 μM of Doxorubicin (Carbosynth). One day after treatment, samples were incubated with medium containing 1:1000 dilution of Calcein AM (Thermofisher) and 1 μg/mL Propidium Iodide (Molecular Probes) for 30 mins at 37° C., 5% CO2, for viability assessment. Images of the fibres were acquired in the Axio Observer inverted Microscope (Zeiss), and a cell profiler pipeline was used to derive the numbers of live and dead cells using the blue staining to distinguish fibroblasts from melanoma cells. Similarly, 2D controls were obtained by simply seeding the cells individually or in co-culture in 24 well-plates at a density of 20×10^3 cells per well (10×10^3 cells of each type in the case of co-cultures). 2D controls were then processed in the same way as the fibres. […]

## COc1cccc2c1C(=O)c1c(O)c3c(c(O)c1C2=O)C[C@@](O)(C(=O)CO)C[C@@H]3O[C@H]1C[C@H](N)[C@H](O)[C@H](C)O1 [Doxorubicin]
cancer-only fibres
  cancer cell viability vs. the control: significant drop in viability
cancer/stroma fibres (no BM)
  cancer cell viability vs. the control: no longer significant
Full cancer/BM/stroma fibres
  numbers of live cancer cells upon treatment: numbers of live cancer cells can improve
